What all share (type): functional
Assay [1] relates to MCF7. Kind of assay: Growth inhibition of Homo sapiens (human) MCF7 cells at 10 uM after 48 hr by coulter counter analysis. Conditions: MCF7, 48 h, read-out: GI.
The subject of assay [2] is SNB-75. Kind of assay: Growth inhibition of Homo sapiens (human) SNB75 cells at 10 uM after 48 hr by coulter counter analysis. Conditions: SNB-75, 48 h, read-out: GI.
Assay [3] has as its system UO-31. Briefly: Growth inhibition of Homo sapiens (human) UO31 cells at 10 uM after 48 hr by coulter counter analysis. Conditions: UO-31, 48 h, read-out: GI.
Assay [4] deals with NCI-H522. Kind of assay: Growth inhibition of Homo sapiens (human) NCI-H522 cells at 10 uM after 48 hr by coulter counter analysis. The conditions noted are these: NCI-H522, 48 h, read-out: GI.
Assay [5] concerns SN12C. Kind of assay: Growth inhibition of Homo sapiens (human) SN12C cells at 10 uM after 48 hr by coulter counter analysis. Conditions: read-out: GI.
For assay [6], the system named is HOP-92. Kind of assay: Growth inhibition of Homo sapiens (human) HOP92 cells at 10 uM after 48 hr by coulter counter analysis. The conditions noted are these: HOP-92, 48 h, read-out: GI.
Assay [7] relates to Pseudomonas aeruginosa. Briefly: Antibacterial activity against Pseudomonas aeruginosa assessed as growth inhibition after 24 hr by two-fold serial dilution method.
The subject of assay [8] is Escherichia coli. Briefly: Antibacterial activity against Escherichia coli assessed as growth inhibition after 24 hr by two-fold serial dilution method. Conditions: for MIC: Escherichia coli, 24 h.
Assay [9] concerns Bacillus subtilis. Briefly: Antibacterial activity against Bacillus subtilis assessed as growth inhibition after 24 hr by two fold serial dilution method.
For assay [10], the system named is Staphylococcus aureus. Kind of assay: Antibacterial activity against Staphylococcus aureus assessed as growth inhibition after 24 hr by two fold serial dilution method. The conditions noted are these: for MIC: Staphylococcus aureus, 24 h.

≈ marks a conversion by molar mass, not a printed value. Some results are limits rather than exact numbers.

Consider `COc1cc(OC)c(N2C(=O)c3cccc4cccc(c34)C2=O)c(OC)c1`, for which the inhibition of growth at 10 µM in assay [1] was determined as 6.42%; in assay [2], 13.2%; in assay [3] it was 21%; in [4], 13.6%; in [5], 19.3%; in [6], 30.2%. Also, the MIC was > 100 µg/mL in assay [7], 2.5 µg/mL (≈ 6.88 µM) in assay [8], 2.2 µg/mL (≈ 6.05 µM) in assay [9] and 2 µg/mL (≈ 5.5 µM) in assay [10]. The “-logMIC” value came out at 5.16 in [8] and 5.26 in assay [10].

On to `O=c1c2ccccc2c2ccccc2c(=O)n1-c1ccc([N+](=O)[O-])cc1[N+](=O)[O-]`, for which the inhibition of growth at 10 µM is -0.39% in assay [1]; 28.6% in [2]; 18.1% in [3]; 5.5% in [4]; 1.4% in [5]; 26.4% in [6]. Besides, the MIC in assay [7] was > 100 µg/mL; in assay [8] it was 4 µg/mL (≈ 10.3 µM); in [9], 2.3 µg/mL (≈ 5.91 µM); in assay [10], 2.2 µg/mL (≈ 5.65 µM). Also, the “-logMIC” value in [8] was 4.99; in assay [10], 5.25.

For the molecule `Cc1cc(Cl)c(N2C(=O)c3cccc4cccc(c34)C2=O)c(Cl)c1`, the inhibition of growth at 10 µM was -1.03% in assay [1]; 6.64% in [2]; 26.8% in assay [3]; 5.32% in assay [4]; 3.72% in [5]; -15.5% in [6]. Further, the MIC in [7] came to 10 µg/mL (≈ 28.1 µM); in assay [8] it was 2.2 µg/mL (≈ 6.18 µM); in assay [9], 20 µg/mL (≈ 56.1 µM); in [10], 18.2 µg/mL (≈ 51.1 µM). In addition, the “-logMIC” value was 5.21 in assay [8] and 4.29 in [10].

What is called MIC is the lowest concentration found to suppress growth.
